According to patent US20100022559A1, “BISOXIMES AS FUNGICIDES” (BAYER CROPSCIENCE AG, priority 2006, published 2010):

Experiments:
Puccinia recondita = assay: Puccinia Recondita Test (Cereal)/Seed Treatment; assay type: in vivo; settings: 50 g/100 kg of seed; seed treatment; evaluation about 7 days after inoculation
Method: Puccinia Recondita Test (Cereal)/Seed Treatment
The active compounds are applied as liquid dressings, 1 part by weight of the active compound being mixed with 10 parts by weight of a solvent. For each concentration tested, the appropriate volume from the mixture is pipetted. For the dressing, the preparation is pipetted onto the seed and the seed is shaken in a closed glass bottle for 3 minutes. At 3×12 grains, the seed is sown into a soil/sand mixture in pots. The pots are initially incubated at 5° C. in the dark for 14 days and then cultivated in a greenhouse at a temperature of about 10° C. and 15 hours of light per day for a further 14 days. The plants are then sprayed with a spore suspension of Puccinia recondita and subsequently placed in an incubation cabin at 18° C. and 100% relative atmospheric humidity for 48 hours. The plants are then placed in a greenhouse at a temperature of about 18° C. and a relative atmospheric humidity of 80%. Evaluation is carried out about 7 days after the inoculation. 0% means an efficacy which corresponds to that of the control, whereas an efficacy of 100% means that no infection is observed.

[1] = logP determination by HPLC on a reversed-phase column (C 18), EEC Directive 79/831 Annex V.A8; assay type: physicochemical
Method: The stated logP values were determined in accordance with EEC Directive 79/831 Annex V.A8 by HPLC (high performance liquid chromatography) on a reversed-phase column (C 18). Temperature: 43° C.

[2] = test system: green peach aphid (Myzus persicae); assay: Myzus test (spray treatment); assay type: in vivo; settings: active compound concentration 500 ppm, after 5 days, chinese cabbage leaf discs
Method: [table] To produce a suitable preparation of active compound, 1 part by weight of active compound is mixed with the stated amounts of solvents and emulsifier, and the concentrate is diluted with emulsifier-containing water to the desired concentration. Discs of chinese cabbage (Brassica pekinensis) which are infested by all stages of the green peach aphid (Myzus persicae) are sprayed with an active compound preparation of the desired concentration. After the desired period of time, the effect in % is determined. 100% means that all aphids have been killed; 0% means that none of the aphids have been killed.

[3] = test system: larvae of the mustard beetle (Phaedon cochleariae); assay: Phaedon test (spray treatment); assay type: in vivo; settings: active compound concentration 500 ppm, after 7 days, chinese cabbage leaf discs
Method: [table] To produce a suitable preparation of active compound, 1 part by weight of active compound is mixed with the stated amounts of solvents and emulsifier, and the concentrate is diluted with emulsifier-containing water to the desired concentration. Discs of chinese cabbage (Brassica pekinensis) are sprayed with an active compound preparation of the desired concentration and, after drying, populated with larvae of the mustard beetle (Phaedon cochleariae). After the desired period of time, the effect in % is determined. 100% means that all beetle larvae have been killed; 0% means that none of the beetle larvae have been killed.

Structure (SMILES)	logP ([1]; value marked [b])	logP ([1]; value marked [c])	logP ([1]; value marked [a])	also measured
CC(=NOCC(C)(C)CON=C(C)c1cccc(C)n1)c1cccc(C)n1 (single isomer, unassigned) [Compound 141]				efficacy (Puccinia recondita): ≥ 70%; logP ([1]; method marker [b], isomer A / isomer B / isomer mixture as noted in the cell): 4.40^[b] (isomer A)
CC(=NOCC1(CON=C(C)c2cccc(C)n2)CC(C(C)(C)C)=NO1)c1cccc(C)n1 (centres unmarked) [Compound 600]				efficacy [2]: 100%; logP ([1]; method marked [b] in Table 1): 3.85^[b]
CCCC1=NOC(CON=C(CCC)c2cccc(C)n2)(CON=C(CCC)c2cccc(C)n2)C1 (centres unmarked) [Compound 618]				efficacy [3]: 100%; logP ([1]; method marked [b] in Table 1): 5.71^[b]
CC(=NOCC1(CON=C(C)c2ccc(C)c(C)n2)COC(=O)N1)c1ccc(C)c(C)n1 (centres unmarked) [compound 857]	1.96^[b]	3.70^[c]		
CC(=NOCC1(CON=C(C)c2cc(C)cc(C)n2)COC(=O)N1)c1cc(C)cc(C)n1 (centres unmarked) [compound 858]	1.43^[b]	3,55^[c]		
CC(=NOCC1(CON=C(C)c2nc(C)ccc2C)COC(=O)N1)c1nc(C)ccc1C (centres unmarked) [compound 859]	1.70^[b]	2.81^[c]		
CCOC(=O)C(C)(CON=C(C)c1nc(C)ccc1C)CON=C(C)c1nc(C)ccc1C (centres unmarked) [compound 860]	3.03[b]	4.72^[c]		
CC(=NOC(=O)NCCCC(C)CNC(=O)ON=C(C)c1ccc(C)c(C)n1)c1ccc(C)c(C)n1 (centres unmarked) [compound 861]			2.55^[a]	
CC(=NOC(=O)NCCCC(C)CNC(=O)ON=C(C)c1cc(C)cc(C)n1)c1cc(C)cc(C)n1 (centres unmarked) [compound 862]			2.06^[a]	
CC(=NOC(=O)NCCCC(C)CNC(=O)ON=C(C)c1cccc(C)n1)c1cccc(C)n1 (centres unmarked) [compound 863]			2.46^[a]	
CC(=NOC(=O)NCCCCNC(=O)ON=C(C)c1cccc(C)n1)c1cccc(C)n1 [compound 864]			1.97^[a]	
CC=Cc1cc(C)nc(C(C)=NOCC(C)CON=C(C)c2cc(C=CC)cc(C)n2)c1 (centres unmarked) [compound 866]	4.57^[b]		4.57^[a]	
CC(=NOCC(C)CON=C(C)c1cc(CO)cc(C)n1)c1cc(CO)cc(C)n1 (centres unmarked) [compound 868]	1.31^[b]	2.67^[c]		
CC(=NOCC(C)CON=C(C)c1cc(C(F)(F)F)cc(C)n1)c1cc(C(F)(F)F)cc(C)n1 (centres unmarked) [compound 869]	7.36^[b]	5.53^[c]	7.36^[a]	
C=CCOC(C)(CON=C(C)c1cccc(C)n1)C(C)ON=C(C)c1cccc(C)n1 (centres unmarked) [compound 872]	6.13^[b]	6.96^[c]	6.13^[a]	
C#Cc1cc(C)nc(C(C)=NOCC(C)CON=C(C)c2cc(C#C)cc(C)n2)c1 (centres unmarked) [compound 873]	6.65^[b]	6.61^[c]	6.65^[a]	
Cc1cc(C)nc(/C(N)=N/OCC(C)CO/N=C(\N)c2nc(C)cc(C)n2)n1 (centres unmarked) [drawing 85, N′,N″-[(2-methylpropane-1,3-diyl)bis(oxy)]bis(4,6-dimethylpyrimidine-2-carboximidamide)]				chromatographic logP ([1]; reversed-phase HPLC column (C 18), HCO2H, HPLC reversed-phase column (C 18), 43° C., read-out: logP (HCO2H)): 1.81

Second part, led by results:

logP ([1]; value marked [b])	logP ([1]; value marked [c])	logP ([1]; value marked [a])	Structure (SMILES)	also measured
6.76^[b]	6.87^[c]	6.76^[a]	COCC#Cc1cc(C)nc(C(C)=NOCC(C)CON=C(C)c2cc(C#CCOC)cc(C)n2)c1 (centres unmarked) [compound 874]	
6.25^[b]	6.31^[c]	6.25^[a]	CC(=O)OCC#Cc1cc(C)nc(C(C)=NOCC(C)CON=C(C)c2cc(C#CCOC(C)=O)cc(C)n2)c1 (centres unmarked) [compound 875]	
6.52^[b]	7.36^[c]	6.52^[a]	CC(=NOCC(C)CON=C(C)c1ccc(C)c(C)n1)c1cc(Cl)cc(C)n1 (centres unmarked) [compound 876]	
6.58^[b]	7.36^[c]	6.58^[a]	CC(=NOCC(C)CON=C(C)c1cc(Cl)cc(C)n1)c1cccc(C)n1 (centres unmarked) [compound 877]	
3.90^[b]	5.41^[c]		CCC(CC)(CON=C(C)c1nc(C)ccc1C)CON=C(C)c1nc(C)ccc1C [compound 882]	
6.81^[b]	7.36^[c]		CCC(=NOCC(C)(C)CON=C(CC)c1cccc(C)n1)c1cccc(C)n1 [compound 883]	
2.47^[b]	3.84^[c]		CCOC(=O)C(C)(CON=C(C)c1nc(C)ccc1C)CON=C(C)c1nc(C)ccc1C (centres unmarked) [compound 884]	
